≈ marks a conversion by molar mass, not a printed value.
Key:
[1] = format: physicochemical; details: 1.5 mol/L DEHiBA in Isane IP 185; aqueous 360 g/L uranium, 2 mol/L nitric acid; even after uranium depletion; 25° C.
[2] = Distribution coefficient, single contact in tubes, 1.5 mol/L DEHiBA in Isane IP 185 vs nitric acid solutions (ICP-AES); format: physicochemical; details: HNO3 0.5 to 4 M, 25° C.
[3] = format: physicochemical; details: 1.5 mol/L DEHiBA in Isane IP 185, HNO3 0.5 to 4 M, 25° C.
[4] = Solubility of DEHiBA in an aqueous phase by total organic carbon (TOC) measurement, test in mixers-decanters; format: physicochemical; details: for DEHiBA equivalent: assumes all organic carbon stems from the extractant
Excerpt: The solubility of DEHiBA in an aqueous phase was appreciated by conducting a test in mixers-decanters similar to the one described in Example 1 hereinbefore and by measuring the total organic carbon (or TOC) present in the aqueous phase exiting the battery 11 (called <<extraction raffinate>> hereafter) on the one hand and, in the aqueous phase exiting the battery 13 and containing the purified uranyl nitrate (called <<U production>> hereafter) on the other hand.
The total organic carbon was measured by means of a thermal TOC-meter in the aqueous phases as obtained after decantation, i.e. without submitting these phases to any centrifugation.

[5] = Distribution coefficient, single contact in tubes, 1.5 mol/L DEHiBA in Isane IP 185 vs nitric acid solutions (ICP-AES); format: physicochemical; details: HNO3 0.5 to 4 M, 25° C.; remark: listed apart in the source
[6] = as above; format: physicochemical; details: HNO3 0.5 to 4 M, 25° C.; remark: listed apart in the source
[7] = as above; format: physicochemical; details: nitric acid 4 mol/L, regardless of the uranium concentration, 25° C.
[8] = as above; format: physicochemical; details: HNO3 0.5 to 4 M, 25° C.; remark: listed apart in the source
[9] = with or without 30 g/L uranium, 1 hour

CCCCC(CC)CN(CC(CC)CCCC)C(=O)C(C)C (stereo not drawn) [DEHiBA, N,N-di-(2-ethylhexyl)isobutyramide]
distribution coefficient of thorium 234, DTh [1]: less than 10^−2 | U/impurities separation factor (molybdenum) [2]: greater than 10,000 | distribution coefficient of molybdenum [2, 9]: less than 10^−3 | U/impurities separation factor (iron) [3]: greater than 10,000 | distribution coefficient of iron [3, 9]: less than 10^−3 | DEHiBA equivalent ([4]; U production, HNO3 0.34 mol/L): 0.00019 mol/L | solubility ([4]; aqueous phase after decantation, under the conditions of the test, includes diluent (TPH) and carried-away organic phase, read-out: DEHiBA soluble in an aqueous phase): 40 to 60 µg/mL (≈ 128 to 193 µM) | DEHiBA equivalent ([4]; extraction raffinate, HNO3 3.1 mol/L): 0.00013 mol/L | U/impurities separation factor (zirconium) [5]: greater than 10,000 | distribution coefficient of zirconium [5, 9]: less than 10^−3 | U/impurities separation factor (vanadium) [6]: greater than 10,000 | distribution coefficient of vanadium [6, 9]: less than 10^−3 | distribution coefficient of thorium(IV) [7]: less than 5.10^−3 | U/impurities separation factor (calcium) [8]: greater than 10,000 | distribution coefficient of calcium [8, 9]: less than 10^−3

Source: US8795611B2 (priority 2009, dated 2014)
